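Step 1: Grow cells in 96-well plates. Step 2: Expose to compound for 48 hours at 5 concentrations. Step 3: Interpolate endpoints linearly; if unreached, use highest concentration. TGI is the concentration that stops growth completely.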
How the values were obtained:
Test in all cases: NCI tumour cell line growth inhibition, 48 h
OVCAR-8 ovarian = tested on: OVCAR-8 ovarian
HS 578T breast = tested on: HS 578T breast
LOX IMVI melanoma = tested on: LOX IMVI melanoma
HOP-62 NSCLC = tested on: HOP-62 NSCLC
BT-549 breast = tested on: BT-549 breast
RPMI-8226 leukemia = tested on: RPMI-8226 leukemia
CAKI-1 renal = tested on: CAKI-1 renal
HCT-116 colon = tested on: HCT-116 colon
MOLT-4 leukemia = tested on: MOLT-4 leukemia
A498 renal = tested on: A498 renal
UACC-257 melanoma = tested on: UACC-257 melanoma
SNB-19 CNS = tested on: SNB-19 CNS
TK-10 renal = tested on: TK-10 renal
NCI-H23 lung = tested on: NCI-H23 lung
786-0 renal = tested on: 786-0 renal
RXF 393 renal = tested on: RXF 393 renal
NCI/ADR-RES ovarian = tested on: NCI/ADR-RES ovarian
NCI-H226 lung = tested on: NCI-H226 lung
SF-295 CNS = tested on: SF-295 CNS
M14 melanoma = tested on: M14 melanoma
SN12C renal = tested on: SN12C renal
HCC-2998 colon = tested on: HCC-2998 colon
COLO 205 colon = tested on: COLO 205 colon
IGROV1 ovarian = tested on: IGROV1 ovarian
MDA-MB-231 breast = tested on: MDA-MB-231 breast
SK-MEL-28 melanoma = tested on: SK-MEL-28 melanoma
EKVX NSCLC = tested on: EKVX NSCLC
SNB-75 CNS = tested on: SNB-75 CNS
MCF7 breast = tested on: MCF7 breast
SW-620 colon = tested on: SW-620 colon
MDA-N = tested on: MDA-N
SK-MEL-2 melanoma = tested on: SK-MEL-2 melanoma
NCI-H460 lung = tested on: NCI-H460 lung
UACC-62 melanoma = tested on: UACC-62 melanoma
HCT-15 colon = tested on: HCT-15 colon
A549 NSCLC = tested on: A549 NSCLC
HL-60(TB) leukemia = tested on: HL-60(TB) leukemia
ACHN renal = tested on: ACHN renal
OVCAR-3 ovarian = tested on: OVCAR-3 ovarian
MALME-3M melanoma = tested on: MALME-3M melanoma
MDA-MB-435 = tested on: MDA-MB-435
CCRF-CEM leukemia = tested on: CCRF-CEM leukemia
T-47D breast = tested on: T-47D breast
PC-3 prostate = tested on: PC-3 prostate
SF-268 CNS = tested on: SF-268 CNS
SR leukemia = tested on: SR leukemia
SF-539 CNS = tested on: SF-539 CNS
HOP-92 NSCLC = tested on: HOP-92 NSCLC
KM12 colon = tested on: KM12 colon
DU-145 prostate = tested on: DU-145 prostate
OVCAR-4 ovarian = tested on: OVCAR-4 ovarian
U251 CNS = tested on: U251 CNS
HT29 colon = tested on: HT29 colon
NCI-H522 lung = tested on: NCI-H522 lung
SK-MEL-5 melanoma = tested on: SK-MEL-5 melanoma
SK-OV-3 ovarian = tested on: SK-OV-3 ovarian
OVCAR-5 ovarian = tested on: OVCAR-5 ovarian
K-562 leukemia = tested on: K-562 leukemia
UO-31 renal = tested on: UO-31 renal
LXFL 529 NSCLC = tested on: LXFL 529 NSCLC
HOP-18 NSCLC = tested on: HOP-18 NSCLC
M19-MEL melanoma = tested on: M19-MEL melanoma
DLD-1 colon = tested on: DLD-1 colon

## CC1(C)C(c2ccccc2)=[N+]([O-])C(C)(C)N1O
OVCAR-8 ovarian
  TGI: > 10 µM
HS 578T breast
  TGI: > 10 µM
LOX IMVI melanoma
  TGI: > 10 µM
HOP-62 NSCLC
  TGI: > 10 µM
BT-549 breast
  TGI: > 10 µM
RPMI-8226 leukemia
  TGI: > 10 µM
CAKI-1 renal
  TGI: > 10 µM
HCT-116 colon
  TGI: > 10 µM
MOLT-4 leukemia
  TGI: > 10 µM
A498 renal
  TGI: > 10 µM
UACC-257 melanoma
  TGI: > 10 µM
SNB-19 CNS
  TGI: > 10 µM
TK-10 renal
  TGI: > 10 µM
NCI-H23 lung
  TGI: > 10 µM
786-0 renal
  TGI: > 10 µM
RXF 393 renal
  TGI: > 10 µM
NCI/ADR-RES ovarian
  TGI: > 10 µM
NCI-H226 lung
  TGI: > 10 µM
SF-295 CNS
  TGI: > 10 µM
M14 melanoma
  TGI: > 10 µM
SN12C renal
  TGI: > 10 µM
HCC-2998 colon
  TGI: > 10 µM
COLO 205 colon
  TGI: > 10 µM
IGROV1 ovarian
  TGI: > 10 µM
MDA-MB-231 breast
  TGI: > 10 µM
SK-MEL-28 melanoma
  TGI: > 10 µM
EKVX NSCLC
  TGI: > 10 µM
SNB-75 CNS
  TGI: > 10 µM
MCF7 breast
  TGI: > 10 µM
SW-620 colon
  TGI: > 10 µM
MDA-N
  TGI: > 10 µM
SK-MEL-2 melanoma
  TGI: > 10 µM
NCI-H460 lung
  TGI: > 10 µM
UACC-62 melanoma
  TGI: > 10 µM
HCT-15 colon
  TGI: > 10 µM
A549 NSCLC
  TGI: > 10 µM
HL-60(TB) leukemia
  TGI: > 10 µM
ACHN renal
  TGI: > 10 µM
OVCAR-3 ovarian
  TGI: > 10 µM
MALME-3M melanoma
  TGI: > 10 µM
MDA-MB-435
  TGI: > 10 µM
CCRF-CEM leukemia
  TGI: > 10 µM
T-47D breast
  TGI: > 10 µM
PC-3 prostate
  TGI: > 10 µM
SF-268 CNS
  TGI: > 10 µM
SR leukemia
  TGI: > 10 µM
SF-539 CNS
  TGI: > 10 µM
HOP-92 NSCLC
  TGI: > 10 µM
KM12 colon
  TGI: > 10 µM
DU-145 prostate
  TGI: > 10 µM
OVCAR-4 ovarian
  TGI: > 10 µM
U251 CNS
  TGI: > 10 µM
HT29 colon
  TGI: > 10 µM
NCI-H522 lung
  TGI: > 10 µM
SK-MEL-5 melanoma
  TGI: > 10 µM
SK-OV-3 ovarian
  TGI: > 10 µM
OVCAR-5 ovarian
  TGI: > 10 µM

## O=c1c2ncn(C3CC(O)C(CO)O3)c2nnn1Cc1ccccc1[N+](=O)[O-] (configuration not stated)
OVCAR-8 ovarian
  TGI: > 100 µM
HS 578T breast
  TGI: > 100 µM
LOX IMVI melanoma
  TGI: > 100 µM
HOP-62 NSCLC
  TGI: > 100 µM
BT-549 breast
  TGI: > 100 µM
RPMI-8226 leukemia
  TGI: > 100 µM
CAKI-1 renal
  TGI: > 100 µM
HCT-116 colon
  TGI: > 100 µM
MOLT-4 leukemia
  TGI: > 100 µM
A498 renal
  TGI: > 100 µM
UACC-257 melanoma
  TGI: > 100 µM
SNB-19 CNS
  TGI: > 100 µM
TK-10 renal
  TGI: > 100 µM
NCI-H23 lung
  TGI: > 100 µM
786-0 renal
  TGI: > 100 µM
RXF 393 renal
  TGI: 94.1 µM
NCI/ADR-RES ovarian
  TGI: > 100 µM
NCI-H226 lung
  TGI: > 100 µM
SF-295 CNS
  TGI: > 100 µM
M14 melanoma
  TGI: > 100 µM
SN12C renal
  TGI: > 100 µM
HCC-2998 colon
  TGI: > 100 µM
COLO 205 colon
  TGI: > 100 µM
IGROV1 ovarian
  TGI: > 100 µM
MDA-MB-231 breast
  TGI: > 100 µM
K-562 leukemia
  TGI: > 100 µM
SK-MEL-28 melanoma
  TGI: > 100 µM
EKVX NSCLC
  TGI: > 100 µM
SNB-75 CNS
  TGI: > 100 µM
MCF7 breast
  TGI: > 100 µM
SW-620 colon
  TGI: > 100 µM
MDA-N
  TGI: > 100 µM
SK-MEL-2 melanoma
  TGI: > 100 µM
NCI-H460 lung
  TGI: > 100 µM
UACC-62 melanoma
  TGI: > 100 µM
HCT-15 colon
  TGI: > 100 µM
A549 NSCLC
  TGI: > 100 µM
HL-60(TB) leukemia
  TGI: > 100 µM
ACHN renal
  TGI: > 100 µM
OVCAR-3 ovarian
  TGI: > 100 µM
MALME-3M melanoma
  TGI: > 100 µM
MDA-MB-435
  TGI: > 100 µM
CCRF-CEM leukemia
  TGI: > 100 µM
T-47D breast
  TGI: > 100 µM
PC-3 prostate
  TGI: > 100 µM
SF-268 CNS
  TGI: > 100 µM
SR leukemia
  TGI: 45.4 µM
SF-539 CNS
  TGI: > 100 µM
HOP-92 NSCLC
  TGI: > 100 µM
UO-31 renal
  TGI: > 100 µM
KM12 colon
  TGI: > 100 µM
DU-145 prostate
  TGI: > 100 µM
OVCAR-4 ovarian
  TGI: > 100 µM
U251 CNS
  TGI: > 100 µM
HT29 colon
  TGI: > 100 µM
NCI-H522 lung
  TGI: > 100 µM
SK-MEL-5 melanoma
  TGI: > 100 µM
SK-OV-3 ovarian
  TGI: > 100 µM
OVCAR-5 ovarian
  TGI: > 100 µM

## CCC(=O)OC[n+]1ccc2c(C)c3[nH]c4ccc(OC)cc4c3c(C)c2c1
RPMI-8226 leukemia
  TGI: 2.54 µM
HCT-116 colon
  TGI: 1.13 µM
LXFL 529 NSCLC
  TGI: 1.57 µM
TK-10 renal
  TGI: 2.92 µM
786-0 renal
  TGI: 1.73 µM
HOP-18 NSCLC
  TGI: 0.131 µM
M19-MEL melanoma
  TGI: 1.68 µM
IGROV1 ovarian
  TGI: 1.03 µM
K-562 leukemia
  TGI: 23.9 µM
HL-60(TB) leukemia
  TGI: 8.38 µM
ACHN renal
  TGI: 3.76 µM
MALME-3M melanoma
  TGI: 2.71 µM
CCRF-CEM leukemia
  TGI: > 100 µM
DLD-1 colon
  TGI: 1.26 µM
HT29 colon
  TGI: 1.57 µM
OVCAR-5 ovarian
  TGI: 1.75 µM

## CN(C)NC(=S)Nc1ccccc1Br
OVCAR-8 ovarian
  TGI: > 100 µM
HS 578T breast
  TGI: > 100 µM
LOX IMVI melanoma
  TGI: > 100 µM
BT-549 breast
  TGI: > 100 µM
RPMI-8226 leukemia
  TGI: > 100 µM
CAKI-1 renal
  TGI: > 100 µM
HCT-116 colon
  TGI: > 100 µM
MOLT-4 leukemia
  TGI: > 100 µM
A498 renal
  TGI: > 100 µM
UACC-257 melanoma
  TGI: > 100 µM
SNB-19 CNS
  TGI: > 100 µM
TK-10 renal
  TGI: > 100 µM
NCI-H23 lung
  TGI: > 100 µM
786-0 renal
  TGI: > 100 µM
RXF 393 renal
  TGI: > 100 µM
NCI/ADR-RES ovarian
  TGI: > 100 µM
NCI-H226 lung
  TGI: > 100 µM
SF-295 CNS
  TGI: > 100 µM
M14 melanoma
  TGI: > 100 µM
COLO 205 colon
  TGI: > 100 µM
IGROV1 ovarian
  TGI: > 100 µM
MDA-MB-231 breast
  TGI: > 100 µM
K-562 leukemia
  TGI: > 100 µM
SK-MEL-28 melanoma
  TGI: > 100 µM
EKVX NSCLC
  TGI: > 100 µM
SNB-75 CNS
  TGI: > 100 µM
MCF7 breast
  TGI: > 100 µM
SW-620 colon
  TGI: > 100 µM
MDA-N
  TGI: > 100 µM
SK-MEL-2 melanoma
  TGI: > 100 µM
NCI-H460 lung
  TGI: > 100 µM
UACC-62 melanoma
  TGI: > 100 µM
HCT-15 colon
  TGI: > 100 µM
A549 NSCLC
  TGI: > 100 µM
HL-60(TB) leukemia
  TGI: > 100 µM
ACHN renal
  TGI: > 100 µM
OVCAR-3 ovarian
  TGI: > 100 µM
MALME-3M melanoma
  TGI: > 100 µM
MDA-MB-435
  TGI: > 100 µM
CCRF-CEM leukemia
  TGI: > 100 µM
T-47D breast
  TGI: > 100 µM
PC-3 prostate
  TGI: > 100 µM
SR leukemia
  TGI: > 100 µM
SF-539 CNS
  TGI: > 100 µM
HOP-92 NSCLC
  TGI: > 100 µM
UO-31 renal
  TGI: > 100 µM
KM12 colon
  TGI: > 100 µM
DU-145 prostate
  TGI: > 100 µM
OVCAR-4 ovarian
  TGI: > 100 µM
U251 CNS
  TGI: > 100 µM
HT29 colon
  TGI: > 100 µM
NCI-H522 lung
  TGI: > 100 µM
SK-MEL-5 melanoma
  TGI: > 100 µM
SK-OV-3 ovarian
  TGI: > 100 µM
OVCAR-5 ovarian
  TGI: > 100 µM

— PubChem BioAssay (NCI)
